Data set [1] addresses Histone acetyltransferase p300 (Homo sapiens) (UniProt Q09472). Put plainly: Inhibition of recombinant human KAT3B (1287 to 1673 residues) using histone H3 peptide and [3H]-acetyl-coA as substrates at 200 uM incubated for 1 hrs by liquid scintillation counter analysis.
The target in data set [2] is Histone acetyltransferase KAT2B (Homo sapiens) (UniProt Q92831). Put plainly: Inhibition of recombinant human KAT2B (492 to 658 residues) using histone H3 peptide and [3H]-acetyl-coA as substrates at 200 uM incubated for 1 hrs by liquid scintillation counter analysis.
Sequence of Histone acetyltransferase KAT2B (Homo sapiens) (Q92831 whole entry, looked up, the tested form may be a part): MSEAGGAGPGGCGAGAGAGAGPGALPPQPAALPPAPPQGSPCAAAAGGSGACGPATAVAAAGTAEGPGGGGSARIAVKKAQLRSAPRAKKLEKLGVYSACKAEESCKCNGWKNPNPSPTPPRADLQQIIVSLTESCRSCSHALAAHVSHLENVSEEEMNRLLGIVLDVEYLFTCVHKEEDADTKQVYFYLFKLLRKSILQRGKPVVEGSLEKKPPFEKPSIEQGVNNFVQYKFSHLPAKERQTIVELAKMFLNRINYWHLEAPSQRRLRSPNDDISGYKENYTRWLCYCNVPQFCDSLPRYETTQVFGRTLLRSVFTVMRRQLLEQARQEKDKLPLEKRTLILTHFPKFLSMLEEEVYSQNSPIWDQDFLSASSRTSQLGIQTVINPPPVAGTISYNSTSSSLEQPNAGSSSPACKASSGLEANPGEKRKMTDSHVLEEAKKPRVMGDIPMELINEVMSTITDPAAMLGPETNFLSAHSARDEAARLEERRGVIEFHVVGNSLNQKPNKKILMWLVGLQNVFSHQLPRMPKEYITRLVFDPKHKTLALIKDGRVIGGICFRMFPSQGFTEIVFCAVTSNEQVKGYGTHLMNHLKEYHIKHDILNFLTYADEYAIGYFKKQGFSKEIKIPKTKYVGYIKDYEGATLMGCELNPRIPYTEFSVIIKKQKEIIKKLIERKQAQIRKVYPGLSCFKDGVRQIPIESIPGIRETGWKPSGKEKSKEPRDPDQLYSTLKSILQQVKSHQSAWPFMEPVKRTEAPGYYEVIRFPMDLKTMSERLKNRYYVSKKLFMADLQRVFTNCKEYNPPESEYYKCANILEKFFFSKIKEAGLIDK
Data set [3] addresses Histone deacetylase 2 (Homo sapiens) (UniProt Q92769). Put plainly: Inhibition of human recombinant KDAC2 using Boc-Lys-(Ac)-AMC as substrate at 50 to 100 uM incubated for 45 mins by fluorescence microplate reader analysis. Particulars: dose 50-100 µM.
The target of data set [4] is Histone deacetylase 3 (Homo sapiens) (UniProt O15379). Put plainly: Inhibition of human recombinant KDAC3 using Boc-Lys-(Ac)-AMC as substrate at 50 to 100 uM incubated for 45 mins by fluorescence microplate reader analysis. Particulars: dose 50-100 µM.
Sequence of Histone deacetylase 3 (Homo sapiens) (O15379 whole entry): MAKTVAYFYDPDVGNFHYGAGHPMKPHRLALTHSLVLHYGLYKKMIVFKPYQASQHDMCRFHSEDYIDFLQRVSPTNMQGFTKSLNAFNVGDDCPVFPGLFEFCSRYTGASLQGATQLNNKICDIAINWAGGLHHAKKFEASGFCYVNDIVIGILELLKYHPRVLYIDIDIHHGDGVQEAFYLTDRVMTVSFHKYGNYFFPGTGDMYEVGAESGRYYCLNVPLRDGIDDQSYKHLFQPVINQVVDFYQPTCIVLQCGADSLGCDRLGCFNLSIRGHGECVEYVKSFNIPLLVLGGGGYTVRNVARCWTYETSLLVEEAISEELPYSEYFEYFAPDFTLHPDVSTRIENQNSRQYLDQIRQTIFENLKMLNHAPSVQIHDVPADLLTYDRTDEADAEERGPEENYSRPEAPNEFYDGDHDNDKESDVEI
Data set [5] concerns the target T1, Protein deacetylase HDAC6 (Homo sapiens) (UniProt Q9UBN7).
T1 sequence (whole entry): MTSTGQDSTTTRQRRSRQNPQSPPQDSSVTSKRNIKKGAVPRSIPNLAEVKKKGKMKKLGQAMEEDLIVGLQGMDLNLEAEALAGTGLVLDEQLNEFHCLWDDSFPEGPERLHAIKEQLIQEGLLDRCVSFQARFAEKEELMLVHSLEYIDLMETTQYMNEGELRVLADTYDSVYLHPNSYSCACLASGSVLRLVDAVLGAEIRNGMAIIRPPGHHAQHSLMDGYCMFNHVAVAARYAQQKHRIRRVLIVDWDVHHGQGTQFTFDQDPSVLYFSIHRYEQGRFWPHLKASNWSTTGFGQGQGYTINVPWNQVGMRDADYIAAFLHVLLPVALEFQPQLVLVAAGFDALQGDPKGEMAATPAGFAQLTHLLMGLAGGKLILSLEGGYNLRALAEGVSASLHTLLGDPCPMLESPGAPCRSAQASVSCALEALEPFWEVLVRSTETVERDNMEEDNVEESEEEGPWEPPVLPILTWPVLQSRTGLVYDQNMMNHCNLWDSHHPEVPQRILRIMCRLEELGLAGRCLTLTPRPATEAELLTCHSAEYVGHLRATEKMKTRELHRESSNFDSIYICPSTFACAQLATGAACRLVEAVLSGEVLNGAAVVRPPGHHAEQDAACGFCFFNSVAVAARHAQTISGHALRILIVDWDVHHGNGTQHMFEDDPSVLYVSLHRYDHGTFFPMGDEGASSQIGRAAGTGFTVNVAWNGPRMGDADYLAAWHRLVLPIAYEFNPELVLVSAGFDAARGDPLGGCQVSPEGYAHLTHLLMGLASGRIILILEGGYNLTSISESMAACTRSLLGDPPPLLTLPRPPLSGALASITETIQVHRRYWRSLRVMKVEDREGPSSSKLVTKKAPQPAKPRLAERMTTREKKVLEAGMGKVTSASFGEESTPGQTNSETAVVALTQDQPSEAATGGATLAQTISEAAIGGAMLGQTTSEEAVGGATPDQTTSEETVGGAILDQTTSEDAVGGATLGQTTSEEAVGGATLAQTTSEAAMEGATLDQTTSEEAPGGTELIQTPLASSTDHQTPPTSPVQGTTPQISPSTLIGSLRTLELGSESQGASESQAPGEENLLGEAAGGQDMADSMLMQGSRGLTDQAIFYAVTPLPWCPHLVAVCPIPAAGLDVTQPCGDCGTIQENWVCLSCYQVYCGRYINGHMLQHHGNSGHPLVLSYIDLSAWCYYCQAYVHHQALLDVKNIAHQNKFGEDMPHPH
Description: Inhibition of human recombinant KDAC6 using Boc-Lys-(Ac)-AMC as substrate at 50 to 100 uM incubated for 45 mins by fluorescence microplate reader analysis. Particulars: dose 50-100 µM.

Data set [6] is filed under the species Homo sapiens. Description: Inhibition of human recombinant KDAC8 using Boc-Lys-(Ac)-AMC as substrate at 50 to 100 uM incubated for 45 mins by fluorescence microplate reader analysis. The note with it: dose 50-100 µM.
For data set [7], the system named is HCT-116. Put plainly: Antiproliferative activity against human HCT-116 cells assessed as cell proliferation inhibition at 10 to 100 uM incubated for 72 hrs by MTT assay. The note with it: dose 10-100 µM. It counts as functional, cell-based. (Formazan colour is commonly taken as a measure of viable cells.)
Data set [8] relates to U-937. Put plainly: Antiproliferative activity against human U-937 cells assessed as cell proliferation inhibition at 10 to 100 uM incubated for 72 hrs by MTT assay. It counts as functional, cell-based. Particulars: dose 10-100 µM.
Data set [9] can be described thus: Cytotoxicity against human Intestinal epithelial cells assessed as inhibition of cell viability at 25 to 200 uM incubated for 72 hrs by MTT assay. It is filed as toxicity, cell-based. The note with it: dose 25-200 µM.
Data set [10] deals with HT-29. Put plainly: Induction of cell cycle arrest in human HT-29 cells assessed as increase in number of cells at sub-G1 phase with DNA hypodiploid at 50 uM incubated for 72 hrs by PI-staining based flow cytometry (Rvb=2%). It counts as functional. (Flow cytometry measures light scatter and fluorescence of single cells or particles in a stream.)
Data set [11] deals with HT-29. Put plainly: Induction of cell cycle arrest in human HT-29 cells assessed as increase in number of cells at sub-G1 phase with DNA hypodiploid at 100 uM incubated for 72 hrs by PI-staining based flow cytometry (Rvb=2%). It is filed as functional.
Data set [12] relates to HCT-116. Description: Induction of cell cycle arrest in human HCT-116 cells assessed as increase in number of cells at sub-G1 phase with DNA hypodiploid at 100 uM incubated for 72 hrs by PI-staining based flow cytometry (Rvb=2%). It is filed as functional.
The subject of data set [13] is HT-29. Put plainly: Effect on cell cycle progression in human HT-29 cells assessed as changes in cell cycle stages at 50 to 100 uM incubated for 72 hrs by PI-staining based flow cytometry. It is filed as functional. The note with it: dose 50-100 µM.
Data set [14] concerns HeLa. Description: Effect on cell cycle progression in human HeLa cells assessed as changes in cell cycle stages at 50 to 100 uM incubated for 72 hrs by PI-staining based flow cytometry. It counts as functional. Particulars: dose 50-100 µM.
Data set [15] deals with HT-29. Description: Induction of apoptosis in human HT-29 cells assessed as slight increase in apoptotic cells at 50 to 100 uM incubated for 72 hrs by Annexin V-FITC staining based flow cytometry. It counts as functional, cell-based. Particulars: dose 50-100 µM.
The subject of data set [16] is HCT-116. Put plainly: Downregulation of UCP2 mRNA expression in human HCT-116 cells at 100 uM incubated for 48 hrs by qRT-PCR analysis. It counts as functional, cell-based. In general terms: Quantitative PCR measures a nucleic acid by following its amplification.
In data set [17] the test system is HCT-116. Put plainly: Induction of apoptosis in human HCT-116 cells assessed as increase in apoptotic cells at 100 uM incubated for 72 hrs in presence of chloroquine by Annexin V-FITC staining based flow cytometry. It is filed as functional, cell-based.

Each structure is given as a SMILES string. Activity calls are given as the source filed them. The calls are words filed in the database; no cut-off is given here.

Sequence of Histone acetyltransferase p300 (Homo sapiens) (Q09472 whole entry, the tested form may be a part): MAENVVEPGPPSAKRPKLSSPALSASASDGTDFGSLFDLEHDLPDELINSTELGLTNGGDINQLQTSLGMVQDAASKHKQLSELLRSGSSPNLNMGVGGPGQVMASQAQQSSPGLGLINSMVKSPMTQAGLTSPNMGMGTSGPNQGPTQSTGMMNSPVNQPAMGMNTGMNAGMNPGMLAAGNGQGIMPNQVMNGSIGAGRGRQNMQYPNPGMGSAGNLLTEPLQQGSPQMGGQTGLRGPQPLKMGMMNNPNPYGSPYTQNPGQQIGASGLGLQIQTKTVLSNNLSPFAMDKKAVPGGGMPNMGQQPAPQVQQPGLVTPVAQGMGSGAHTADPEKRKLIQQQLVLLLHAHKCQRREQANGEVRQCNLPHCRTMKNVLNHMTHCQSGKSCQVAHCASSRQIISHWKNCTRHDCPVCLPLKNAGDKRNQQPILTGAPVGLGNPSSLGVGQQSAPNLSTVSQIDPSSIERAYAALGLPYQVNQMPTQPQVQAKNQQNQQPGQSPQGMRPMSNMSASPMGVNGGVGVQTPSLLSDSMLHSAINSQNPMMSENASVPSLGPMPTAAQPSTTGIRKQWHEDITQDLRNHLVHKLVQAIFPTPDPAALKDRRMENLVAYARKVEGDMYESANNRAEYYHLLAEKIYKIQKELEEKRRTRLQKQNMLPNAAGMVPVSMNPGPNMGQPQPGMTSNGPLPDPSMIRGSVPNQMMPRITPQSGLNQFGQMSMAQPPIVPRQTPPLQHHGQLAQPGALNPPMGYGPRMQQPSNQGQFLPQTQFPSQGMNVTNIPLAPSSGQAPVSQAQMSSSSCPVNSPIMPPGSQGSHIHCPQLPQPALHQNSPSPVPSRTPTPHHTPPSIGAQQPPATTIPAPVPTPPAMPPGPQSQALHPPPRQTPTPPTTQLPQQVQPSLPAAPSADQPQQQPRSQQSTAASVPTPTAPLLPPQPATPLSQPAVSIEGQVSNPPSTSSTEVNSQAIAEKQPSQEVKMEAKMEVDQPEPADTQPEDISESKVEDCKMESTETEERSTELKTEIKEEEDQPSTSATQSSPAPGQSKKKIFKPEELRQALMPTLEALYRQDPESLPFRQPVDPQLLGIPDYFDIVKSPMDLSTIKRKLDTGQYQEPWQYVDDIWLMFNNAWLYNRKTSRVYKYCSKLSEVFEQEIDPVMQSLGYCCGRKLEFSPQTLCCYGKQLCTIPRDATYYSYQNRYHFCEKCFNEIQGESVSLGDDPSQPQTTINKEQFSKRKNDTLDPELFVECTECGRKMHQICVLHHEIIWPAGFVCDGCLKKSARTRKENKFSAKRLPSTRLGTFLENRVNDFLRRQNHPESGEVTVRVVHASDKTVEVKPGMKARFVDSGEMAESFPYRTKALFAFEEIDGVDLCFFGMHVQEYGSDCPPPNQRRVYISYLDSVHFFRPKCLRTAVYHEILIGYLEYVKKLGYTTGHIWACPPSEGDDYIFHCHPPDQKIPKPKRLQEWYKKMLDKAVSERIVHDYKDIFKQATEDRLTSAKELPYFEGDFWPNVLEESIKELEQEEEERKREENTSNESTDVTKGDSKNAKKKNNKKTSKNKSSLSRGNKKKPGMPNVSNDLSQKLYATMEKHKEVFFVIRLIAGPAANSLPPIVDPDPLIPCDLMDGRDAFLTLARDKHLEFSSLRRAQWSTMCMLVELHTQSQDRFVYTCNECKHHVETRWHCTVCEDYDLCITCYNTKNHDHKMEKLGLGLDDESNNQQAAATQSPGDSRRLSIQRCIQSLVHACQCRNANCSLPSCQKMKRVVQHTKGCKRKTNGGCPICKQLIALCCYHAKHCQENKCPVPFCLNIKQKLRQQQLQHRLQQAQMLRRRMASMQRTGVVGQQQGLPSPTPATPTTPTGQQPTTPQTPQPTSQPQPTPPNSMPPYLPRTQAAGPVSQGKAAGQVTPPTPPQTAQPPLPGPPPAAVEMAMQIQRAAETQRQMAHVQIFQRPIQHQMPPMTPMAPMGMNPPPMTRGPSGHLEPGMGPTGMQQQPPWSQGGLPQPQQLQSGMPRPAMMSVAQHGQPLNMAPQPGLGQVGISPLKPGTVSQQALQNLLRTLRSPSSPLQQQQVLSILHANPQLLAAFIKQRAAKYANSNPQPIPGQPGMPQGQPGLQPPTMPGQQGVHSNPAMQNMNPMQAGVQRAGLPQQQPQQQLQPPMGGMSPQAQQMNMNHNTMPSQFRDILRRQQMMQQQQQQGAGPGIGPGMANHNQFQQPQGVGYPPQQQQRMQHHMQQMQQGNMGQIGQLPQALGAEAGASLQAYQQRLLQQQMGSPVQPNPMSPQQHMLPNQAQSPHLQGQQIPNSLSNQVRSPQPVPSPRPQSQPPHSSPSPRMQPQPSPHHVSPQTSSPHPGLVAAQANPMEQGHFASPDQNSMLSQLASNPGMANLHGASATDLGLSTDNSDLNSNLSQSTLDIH
Sequence of Histone deacetylase 2 (Homo sapiens) (Q92769 whole entry): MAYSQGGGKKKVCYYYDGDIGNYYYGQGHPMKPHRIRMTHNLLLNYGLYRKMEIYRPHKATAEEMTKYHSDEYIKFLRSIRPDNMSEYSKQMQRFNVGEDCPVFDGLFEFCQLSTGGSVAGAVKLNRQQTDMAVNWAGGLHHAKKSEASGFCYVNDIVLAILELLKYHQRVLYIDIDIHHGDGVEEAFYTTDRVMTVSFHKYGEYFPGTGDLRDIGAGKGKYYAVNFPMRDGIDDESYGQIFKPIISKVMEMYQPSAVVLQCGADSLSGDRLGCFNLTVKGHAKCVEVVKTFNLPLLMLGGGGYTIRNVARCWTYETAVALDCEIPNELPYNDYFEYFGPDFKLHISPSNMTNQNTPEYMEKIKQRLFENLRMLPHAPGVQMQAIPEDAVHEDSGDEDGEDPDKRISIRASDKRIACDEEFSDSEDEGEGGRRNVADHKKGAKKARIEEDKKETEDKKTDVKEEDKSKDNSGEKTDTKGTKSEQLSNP

Consider `CC1=NN(c2ccc(C(=O)O)cc2)C(=O)/C1=C\c1ccc[nH]1`, for which the inhibition entry in [1], in [2], in data set [3], in data set [4], in data set [5] and in data set [6] was “inactive” throughout. For the same compound, the Activity entry was “Dose-Dependent Effect” in data set [7]; “Dose-Dependent Effect” in [8]; “Non-Toxic” in data set [9]; 7% in data set [10]; 15% in data set [11]; 6% in [12]. Moreover, the outcome in [13] and in [14] was inactive. Further, the result in data set [15], in [16] and in data set [17] was Active.
As for `O=C(O)c1ccc(N2N=C(c3ccccc3)/C(=C/c3ccc[nH]3)C2=O)cc1`, the inhibition result in [1], in data set [2], in data set [3], in data set [4], in data set [5] and in [6] was “inactive” in each case. Moreover, the Activity entry in data set [7] is “Dose-Dependent Effect”; in data set [8], “Dose-Dependent Effect”; in data set [9], “Non-Toxic”; in data set [10], 8%; in data set [11], 14%; in data set [12] it was 13%. Besides, the outcome in data set [13] and in data set [14] was inactive. Moreover, the result in data set [15], in data set [16] and in data set [17] was Active.
